How the values were obtained:
Experiment in all cases: scanMAX KINOMEscan (Eurofins)
Type in all cases: binding
PCTK1 = PCTK1 (Homo sapiens, UniProt Q00536); conditions: compound concentration 100 nM; Entrez CDK16; read-out: Percent Control
Excerpt: (§1) Supplement cb5c00097_si_002.xlsx, sheet "Table S6 (Eurofins Selectivity)" | column: Percent Control

PIK3C2G = PIK3C2G (Homo sapiens, UniProt O75747); conditions: 1000 nM, read-out: Percent Control
Excerpt: as §1

IKK-alpha = IKK-alpha (Homo sapiens, UniProt O15111); conditions: read-out: Percent Control
Sequence of IKK-alpha (O15111 whole entry): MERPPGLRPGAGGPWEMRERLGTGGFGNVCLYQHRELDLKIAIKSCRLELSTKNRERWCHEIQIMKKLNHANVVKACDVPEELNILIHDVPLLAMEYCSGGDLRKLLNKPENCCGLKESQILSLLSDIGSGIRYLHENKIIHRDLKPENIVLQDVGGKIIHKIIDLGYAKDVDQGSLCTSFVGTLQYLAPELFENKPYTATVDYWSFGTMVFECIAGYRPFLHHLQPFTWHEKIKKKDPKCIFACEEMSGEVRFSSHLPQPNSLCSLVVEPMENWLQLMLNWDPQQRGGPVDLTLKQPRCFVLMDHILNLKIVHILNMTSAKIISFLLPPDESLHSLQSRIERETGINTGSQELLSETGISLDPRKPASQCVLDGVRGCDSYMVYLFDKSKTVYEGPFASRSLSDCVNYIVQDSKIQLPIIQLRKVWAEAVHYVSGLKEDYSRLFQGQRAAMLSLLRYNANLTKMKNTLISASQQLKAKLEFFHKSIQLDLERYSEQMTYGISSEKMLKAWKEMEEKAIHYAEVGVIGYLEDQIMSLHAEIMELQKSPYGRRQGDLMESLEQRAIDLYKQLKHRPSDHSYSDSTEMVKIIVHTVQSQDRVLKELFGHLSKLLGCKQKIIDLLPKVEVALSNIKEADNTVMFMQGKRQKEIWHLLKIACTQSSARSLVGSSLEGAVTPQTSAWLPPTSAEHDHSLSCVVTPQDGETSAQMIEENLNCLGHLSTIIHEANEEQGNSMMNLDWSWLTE
Excerpt: as §1

AURKC = AURKC (Homo sapiens, UniProt Q9UQB9); conditions: 1000 nM, read-out: Percent Control
Excerpt: as §1

NLK = NLK (Homo sapiens, UniProt Q9UBE8); conditions: 1000 nM, read-out: Percent Control
Excerpt: as §1

CAMK1B = CAMK1B (Homo sapiens, UniProt Q6P2M8); conditions: 1000 nM, read-out: Percent Control
Excerpt: as §1

RIOK1 = RIOK1 (Homo sapiens, UniProt Q9BRS2); conditions: 1000 nM, read-out: Percent Control
Excerpt: as §1

DDR2 = DDR2 (Homo sapiens, UniProt Q16832); conditions: 1000 nM, read-out: Percent Control
Excerpt: as §1

STK39 = STK39 (Homo sapiens, UniProt Q9UEW8); conditions: 1000 nM, read-out: Percent Control
Excerpt: as §1

NDR2 = NDR2 (Homo sapiens, UniProt Q9Y2H1); conditions: 1000 nM, read-out: Percent Control
Excerpt: as §1

DCAMKL2 = DCAMKL2 (Homo sapiens, UniProt Q8N568); conditions: 1000 nM, read-out: Percent Control
Excerpt: as §1

NIM1 = NIM1 (Homo sapiens, UniProt Q8IY84); conditions: compound concentration 100 nM; Entrez MGC42105; read-out: Percent Control
Excerpt: as §1

PHKG1 = PHKG1 (Homo sapiens, UniProt Q16816); conditions: 1000 nM, read-out: Percent Control
Excerpt: as §1

YES = YES (Homo sapiens, UniProt P07947); conditions: 1000 nM, read-out: Percent Control
Excerpt: as §1

MYO3B = MYO3B (Homo sapiens, UniProt Q8WXR4); conditions: 1000 nM, read-out: Percent Control
Excerpt: as §1

EPHA7 = EPHA7 (Homo sapiens, UniProt Q15375); conditions: read-out: Percent Control
Sequence of EPHA7 (Q15375 28-998): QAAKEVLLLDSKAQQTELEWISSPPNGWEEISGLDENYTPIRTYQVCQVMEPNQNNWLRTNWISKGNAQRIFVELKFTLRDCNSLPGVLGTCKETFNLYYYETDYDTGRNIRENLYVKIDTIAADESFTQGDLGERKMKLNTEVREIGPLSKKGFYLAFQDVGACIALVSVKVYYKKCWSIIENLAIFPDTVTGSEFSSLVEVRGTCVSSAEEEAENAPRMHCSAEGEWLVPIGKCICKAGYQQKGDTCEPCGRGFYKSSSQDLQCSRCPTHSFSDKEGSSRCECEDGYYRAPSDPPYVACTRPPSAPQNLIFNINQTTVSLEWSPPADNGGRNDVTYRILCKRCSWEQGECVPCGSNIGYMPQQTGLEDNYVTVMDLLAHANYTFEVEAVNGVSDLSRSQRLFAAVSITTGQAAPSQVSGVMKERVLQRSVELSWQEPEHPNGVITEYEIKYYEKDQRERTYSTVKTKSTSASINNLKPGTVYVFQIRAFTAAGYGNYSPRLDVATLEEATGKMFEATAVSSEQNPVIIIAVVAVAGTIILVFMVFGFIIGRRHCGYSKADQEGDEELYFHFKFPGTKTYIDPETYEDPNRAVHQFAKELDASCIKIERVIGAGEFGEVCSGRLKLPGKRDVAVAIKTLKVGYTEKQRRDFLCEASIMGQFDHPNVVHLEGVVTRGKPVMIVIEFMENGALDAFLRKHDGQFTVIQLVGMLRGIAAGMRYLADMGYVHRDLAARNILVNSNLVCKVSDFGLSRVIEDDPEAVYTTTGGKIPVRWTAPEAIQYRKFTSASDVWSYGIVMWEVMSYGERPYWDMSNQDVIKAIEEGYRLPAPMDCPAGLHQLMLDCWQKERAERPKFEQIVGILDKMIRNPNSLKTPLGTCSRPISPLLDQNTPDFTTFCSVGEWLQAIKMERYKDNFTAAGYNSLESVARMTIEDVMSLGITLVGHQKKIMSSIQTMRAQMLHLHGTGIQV
Excerpt: as §1

[1] = target: RPS6KA5(Kin.Dom.2-C-terminal) (Homo sapiens, UniProt O75582); conditions: compound concentration 100 nM; Entrez RPS6KA5; read-out: Percent Control
Sequence of RPS6KA5(Kin.Dom.2-C-terminal) (O75582 426-687): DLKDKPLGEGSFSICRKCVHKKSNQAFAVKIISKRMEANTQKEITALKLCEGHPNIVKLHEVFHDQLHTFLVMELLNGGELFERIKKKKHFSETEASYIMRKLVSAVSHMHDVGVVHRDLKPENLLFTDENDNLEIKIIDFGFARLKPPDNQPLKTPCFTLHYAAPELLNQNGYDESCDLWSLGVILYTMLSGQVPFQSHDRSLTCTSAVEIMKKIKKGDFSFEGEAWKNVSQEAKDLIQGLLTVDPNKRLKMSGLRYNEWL
Excerpt: as §1

AKT3 = AKT3 (Homo sapiens, UniProt Q9Y243); conditions: read-out: Percent Control
Sequence of AKT3 (Q9Y243 whole entry): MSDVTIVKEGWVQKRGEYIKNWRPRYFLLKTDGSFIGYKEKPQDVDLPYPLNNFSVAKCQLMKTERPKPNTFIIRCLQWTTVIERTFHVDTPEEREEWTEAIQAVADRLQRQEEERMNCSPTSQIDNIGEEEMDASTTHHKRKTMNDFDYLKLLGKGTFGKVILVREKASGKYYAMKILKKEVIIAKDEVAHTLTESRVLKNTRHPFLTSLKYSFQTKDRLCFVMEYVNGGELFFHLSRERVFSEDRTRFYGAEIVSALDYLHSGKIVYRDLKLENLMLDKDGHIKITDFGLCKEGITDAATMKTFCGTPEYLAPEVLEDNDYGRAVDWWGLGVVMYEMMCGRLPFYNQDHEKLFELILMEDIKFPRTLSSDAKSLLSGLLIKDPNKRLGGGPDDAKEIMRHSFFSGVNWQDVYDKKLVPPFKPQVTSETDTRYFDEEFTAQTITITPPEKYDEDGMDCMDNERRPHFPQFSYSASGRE
Excerpt: as §1

BMPR1A = BMPR1A (Homo sapiens, UniProt P36894); conditions: 1000 nM, read-out: Percent Control
Excerpt: as §1

GAK = GAK (Homo sapiens, UniProt O14976); conditions: read-out: Percent Control
Excerpt: as §1

DCAMKL1 = DCAMKL1 (Homo sapiens, UniProt O15075); conditions: read-out: Percent Control
Sequence of DCAMKL1 (O15075 whole entry): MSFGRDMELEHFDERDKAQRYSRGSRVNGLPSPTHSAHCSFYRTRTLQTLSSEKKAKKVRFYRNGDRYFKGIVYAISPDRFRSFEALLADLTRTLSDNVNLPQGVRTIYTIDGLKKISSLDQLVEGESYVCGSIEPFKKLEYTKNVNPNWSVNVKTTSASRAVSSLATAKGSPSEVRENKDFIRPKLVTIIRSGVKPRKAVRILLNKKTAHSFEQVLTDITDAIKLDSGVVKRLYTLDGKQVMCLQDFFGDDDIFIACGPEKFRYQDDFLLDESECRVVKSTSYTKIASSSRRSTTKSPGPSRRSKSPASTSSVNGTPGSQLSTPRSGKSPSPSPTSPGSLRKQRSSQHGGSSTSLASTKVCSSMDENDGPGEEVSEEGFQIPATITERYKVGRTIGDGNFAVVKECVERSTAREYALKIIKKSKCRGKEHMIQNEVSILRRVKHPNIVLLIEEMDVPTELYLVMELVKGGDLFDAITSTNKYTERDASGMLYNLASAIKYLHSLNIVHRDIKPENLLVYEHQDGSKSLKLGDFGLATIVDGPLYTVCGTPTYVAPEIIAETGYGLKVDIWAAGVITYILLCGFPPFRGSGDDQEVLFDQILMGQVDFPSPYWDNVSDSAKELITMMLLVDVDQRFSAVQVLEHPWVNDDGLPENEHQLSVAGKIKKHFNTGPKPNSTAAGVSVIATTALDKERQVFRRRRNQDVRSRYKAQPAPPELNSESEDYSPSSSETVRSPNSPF
Excerpt: as §1

TLK1 = TLK1 (Homo sapiens, UniProt Q9UKI8); conditions: compound concentration 100 nM; Entrez TLK1; read-out: Percent Control
Excerpt: as §1

OSR1 = OSR1 (Homo sapiens, UniProt O95747); conditions: 1000 nM, read-out: Percent Control
Excerpt: as §1

CDK4-cyclinD3 = CDK4-cyclinD3 (Homo sapiens, UniProt P11802); conditions: 1000 nM, read-out: Percent Control
Excerpt: as §1

TAOK3 = TAOK3 (Homo sapiens, UniProt Q9H2K8); conditions: 1000 nM, read-out: Percent Control
Excerpt: as §1

ACVR2A = ACVR2A (Homo sapiens, UniProt P27037); conditions: read-out: Percent Control
Sequence of ACVR2A (P27037 20-513): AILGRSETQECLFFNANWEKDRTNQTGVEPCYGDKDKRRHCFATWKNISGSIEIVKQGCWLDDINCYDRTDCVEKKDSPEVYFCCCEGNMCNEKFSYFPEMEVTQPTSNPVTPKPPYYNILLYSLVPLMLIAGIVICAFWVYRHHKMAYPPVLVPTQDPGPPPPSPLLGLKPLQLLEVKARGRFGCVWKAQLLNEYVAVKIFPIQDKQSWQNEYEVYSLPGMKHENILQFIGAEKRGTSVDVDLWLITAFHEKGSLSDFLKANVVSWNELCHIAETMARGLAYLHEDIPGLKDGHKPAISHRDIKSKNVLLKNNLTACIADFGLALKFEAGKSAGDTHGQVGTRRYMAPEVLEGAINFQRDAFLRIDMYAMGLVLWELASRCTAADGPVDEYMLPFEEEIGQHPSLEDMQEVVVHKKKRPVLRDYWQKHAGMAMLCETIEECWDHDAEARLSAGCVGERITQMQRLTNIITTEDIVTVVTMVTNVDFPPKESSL
Excerpt: as §1

PRKCE = PRKCE (Homo sapiens, UniProt Q02156); conditions: compound concentration 100 nM; Entrez PRKCE; read-out: Percent Control
Excerpt: as §1

PAK6 = PAK6 (Homo sapiens, UniProt Q9NQU5); conditions: compound concentration 100 nM; Entrez PAK6; read-out: Percent Control
Excerpt: as §1

FLT3 = FLT3 (Homo sapiens, UniProt P36888); conditions: read-out: Percent Control
Sequence of FLT3 (P36888 27-993): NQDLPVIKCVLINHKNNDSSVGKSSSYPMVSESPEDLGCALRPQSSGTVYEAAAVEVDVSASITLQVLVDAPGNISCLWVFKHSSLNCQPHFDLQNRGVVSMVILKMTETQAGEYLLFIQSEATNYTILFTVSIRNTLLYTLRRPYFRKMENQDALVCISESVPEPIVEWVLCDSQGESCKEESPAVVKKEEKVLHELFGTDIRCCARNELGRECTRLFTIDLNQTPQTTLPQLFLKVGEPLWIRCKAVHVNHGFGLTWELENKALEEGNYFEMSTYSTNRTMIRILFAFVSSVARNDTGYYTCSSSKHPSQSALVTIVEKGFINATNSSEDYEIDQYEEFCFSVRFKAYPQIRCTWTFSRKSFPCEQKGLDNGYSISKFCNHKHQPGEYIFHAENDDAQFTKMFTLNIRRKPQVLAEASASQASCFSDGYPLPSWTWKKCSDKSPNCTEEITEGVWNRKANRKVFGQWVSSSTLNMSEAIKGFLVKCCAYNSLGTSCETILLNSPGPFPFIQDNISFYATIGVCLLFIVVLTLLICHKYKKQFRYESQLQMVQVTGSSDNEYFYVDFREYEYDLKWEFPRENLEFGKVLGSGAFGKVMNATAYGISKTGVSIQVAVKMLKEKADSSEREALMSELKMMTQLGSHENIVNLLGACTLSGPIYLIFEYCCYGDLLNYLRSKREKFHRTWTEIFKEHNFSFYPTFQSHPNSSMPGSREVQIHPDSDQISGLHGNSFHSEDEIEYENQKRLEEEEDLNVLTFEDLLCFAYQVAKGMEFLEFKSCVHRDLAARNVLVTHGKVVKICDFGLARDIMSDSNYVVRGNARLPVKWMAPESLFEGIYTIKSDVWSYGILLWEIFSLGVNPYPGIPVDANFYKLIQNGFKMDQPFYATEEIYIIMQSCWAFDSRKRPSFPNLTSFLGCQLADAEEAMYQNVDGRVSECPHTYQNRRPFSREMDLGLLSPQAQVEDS
Excerpt: as §1

[2] = target: RSK1(Kin.Dom.1-N-terminal) (Homo sapiens, UniProt Q15418); conditions: compound concentration 100 nM; Entrez RPS6KA1; read-out: Percent Control
Excerpt: as §1

p38-delta = p38-delta (Homo sapiens, UniProt O15264); conditions: compound concentration 100 nM; Entrez MAPK13; read-out: Percent Control
Excerpt: as §1

CSNK2A1 = CSNK2A1 (Homo sapiens, UniProt P68400); conditions: read-out: Percent Control
Sequence of CSNK2A1 (P68400 whole entry): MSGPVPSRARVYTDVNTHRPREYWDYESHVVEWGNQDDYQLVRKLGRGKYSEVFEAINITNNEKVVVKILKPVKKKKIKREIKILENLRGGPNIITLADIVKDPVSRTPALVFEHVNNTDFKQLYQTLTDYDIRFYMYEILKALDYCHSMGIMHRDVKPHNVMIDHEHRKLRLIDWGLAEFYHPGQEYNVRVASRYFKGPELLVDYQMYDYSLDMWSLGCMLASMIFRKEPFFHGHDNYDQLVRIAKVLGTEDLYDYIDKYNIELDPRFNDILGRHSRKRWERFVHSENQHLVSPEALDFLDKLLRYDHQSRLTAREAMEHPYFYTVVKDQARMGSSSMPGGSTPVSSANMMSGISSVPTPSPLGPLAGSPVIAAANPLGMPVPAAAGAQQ
Excerpt: as §1

PFPK5(P.falciparum) = PFPK5(P.falciparum) (Plasmodium falciparum, UniProt P61075); conditions: 1000 nM, read-out: Percent Control
Excerpt: as §1

MYLK = MYLK (Homo sapiens, UniProt Q15746); conditions: 1000 nM, read-out: Percent Control
Excerpt: as §1

EPHB4 = EPHB4 (Homo sapiens, UniProt P54760); conditions: 1000 nM, read-out: Percent Control
Excerpt: as §1

## CN1C(=O)[C@@H](N2CCc3c(nn(Cc4ccccc4)c3C(N)=O)C2=O)COc2cc(Cl)ccc21 [Compound 10, (S)-2-benzyl-6-(8-chloro-5-methyl-4-oxo-2,3,4,5-tetrahydrobenzo[b][1,4]oxazepin-3-yl)-7-oxo-4,5,6,7-tetrahydro-2H-pyrazolo[3,4-c]pyridine-3-carboxamide]
PCTK1
  remaining binding at 0.1 µM: 100%
PIK3C2G
  remaining binding at 1 µM: 84%
IKK-alpha; 1000 nM
  remaining binding at 1 µM: 100%
IKK-alpha; compound concentration 100 nM, Entrez CHUK
  remaining binding at 0.1 µM: 93%
AURKC
  remaining binding at 1 µM: 90%
NLK
  remaining binding at 1 µM: 98%
CAMK1B
  remaining binding at 1 µM: 91%
RIOK1
  remaining binding at 1 µM: 85%
DDR2
  remaining binding at 1 µM: 86%
STK39
  remaining binding at 1 µM: 84%
NDR2
  remaining binding at 1 µM: 96%
DCAMKL2
  remaining binding at 1 µM: 83%
NIM1
  remaining binding at 0.1 µM: 99%
PHKG1
  remaining binding at 1 µM: 93%
YES
  remaining binding at 1 µM: 90%
MYO3B
  remaining binding at 1 µM: 96%
EPHA7; 1000 nM
  remaining binding at 1 µM: 100%
EPHA7; compound concentration 100 nM, Entrez EPHA7
  remaining binding at 0.1 µM: 91%
[1]
  remaining binding at 0.1 µM: 95%
AKT3; 1000 nM
  remaining binding at 1 µM: 100%
AKT3; compound concentration 100 nM, Entrez AKT3
  remaining binding at 0.1 µM: 100%
BMPR1A
  remaining binding at 1 µM: 80%
GAK; 1000 nM
  remaining binding at 1 µM: 100%
GAK; compound concentration 100 nM, Entrez GAK
  remaining binding at 0.1 µM: 87%
DCAMKL1; 1000 nM
  remaining binding at 1 µM: 100%
DCAMKL1; compound concentration 100 nM, Entrez DCLK1
  remaining binding at 0.1 µM: 92%
TLK1
  remaining binding at 0.1 µM: 88%
OSR1
  remaining binding at 1 µM: 74%
CDK4-cyclinD3
  remaining binding at 1 µM: 95%
TAOK3
  remaining binding at 1 µM: 96%
ACVR2A; 1000 nM
  remaining binding at 1 µM: 100%
ACVR2A; compound concentration 100 nM, Entrez ACVR2A
  remaining binding at 0.1 µM: 100%
PRKCE
  remaining binding at 0.1 µM: 91%
PAK6
  remaining binding at 0.1 µM: 93%
FLT3; 1000 nM
  remaining binding at 1 µM: 100%
FLT3; compound concentration 100 nM, Entrez FLT3
  remaining binding at 0.1 µM: 96%
[2]
  remaining binding at 0.1 µM: 75%
p38-delta
  remaining binding at 0.1 µM: 79%
CSNK2A1; 1000 nM
  remaining binding at 1 µM: 100%
CSNK2A1; compound concentration 100 nM, Entrez CSNK2A1
  remaining binding at 0.1 µM: 82%
PFPK5(P.falciparum)
  remaining binding at 1 µM: 66%
MYLK
  remaining binding at 1 µM: 86%
EPHB4
  remaining binding at 1 µM: 94%

Reference: article PMC12090182, “Repurposing of the RIPK1-Selective Benzo[1,4]oxazepin-4-one Scaffold for the Development of a Type III LIMK1/2 Inhibitor” (ACS Chemical Biology, 2025)
